Among the data in the supplement of paper PMC10307832 are relative viability values, retold here.

Compound in one assay: CC1(C)CNc2cc(NC(=O)c3cccnc3NCc3ccncc3)ccc21 [Motesanib]
The assay is described as follows: relative viability (nuclei count vs DMSO), 5 days (fraction); higher = more cells survive. The method, boiled down: (§1)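 Viability here means nuclei in treated wells divided by nuclei in vehicle wells, reported as the median across plates. Only plates with control CV below 25% and at least one doubling passed. Lung cancer cell lines in 1536-well plates were exposed to five √10-spaced library-drug doses for 5 days and counted from 4× Hoechst images in MetaXpress.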

Compound in assay [1]: C[C@@]1(C(=O)Nc2ccc(F)nc2)CCCN1c1nc(Nc2cc(C3CC3)n[nH]2)c2cccn2n1
The description is as above. The method, boiled down: as §1

On to H3255, for which the relative viability with Motesanib (0.01 µM) came out at 0.905; with Motesanib (0.03162 µM), 1.04; with Motesanib (0.1 µM), 0.978; with Motesanib (0.3162 µM), 1.05; with Motesanib (1 µM) it was 1.01; in assay [1] (0.04 µM), 1.05. The relative viability came out at 0.954 in assay [1] (0.1265 µM), 0.931 in assay [1] (0.4 µM) and 0.882 in assay [1] (1.265 µM).

Take HARA: the relative viability with Motesanib (0.01 µM) worked out at 0.959; with Motesanib (0.03162 µM), 1.1; with Motesanib (0.1 µM) it was 0.909; with Motesanib (0.3162 µM), 1.09; in the assay with Motesanib (1 µM), 0.997; in assay [1] (0.04 µM) it was 0.815. The relative viability in assay [1] (0.1265 µM) came to 1.01; in assay [1] (0.4 µM), 0.756; in assay [1] (1.265 µM), 0.723.

For the cell line HCC-15, the relative viability with Motesanib (0.01 µM) amounted to 0.955; with Motesanib (0.03162 µM), 0.972; with Motesanib (0.1 µM), 0.896; in the assay with Motesanib (0.3162 µM) it was 1.16; in the assay with Motesanib (1 µM) it was 1.01; in assay [1] (0.04 µM), 0.85. The figures for the relative viability in assay [1] (0.1265 µM), in assay [1] (0.4 µM) and in assay [1] (1.265 µM) were 0.667, 0.727 and 0.764, respectively.

With HCC-44, the relative viability stood at 0.978 in the assay with Motesanib (0.01 µM); 0.957 with Motesanib (0.03162 µM); 1.02 with Motesanib (0.1 µM); 1.04 in the assay with Motesanib (0.3162 µM); 0.989 with Motesanib (1 µM); 0.99 in assay [1] (0.04 µM). The relative viability in assay [1] (0.1265 µM) turned out to be 0.904; in assay [1] (0.4 µM) it was 0.716; in assay [1] (1.265 µM) it was 0.737.

On to HCC-78, for which the relative viability in the assay with Motesanib (0.01 µM) was 0.891; with Motesanib (0.03162 µM) it was 0.957; with Motesanib (0.1 µM), 0.957; with Motesanib (0.3162 µM), 0.92; in the assay with Motesanib (1 µM) it was 1.03; in assay [1] (0.04 µM) it was 0.968. For the same cell line, the values for the relative viability in assay [1] (0.1265 µM), in assay [1] (0.4 µM) and in assay [1] (1.265 µM) were 0.686, 0.496 and 0.44, respectively.

On to HCC-366, for which the relative viability in the assay with Motesanib (0.01 µM) amounted to 1.04; with Motesanib (0.03162 µM) it was 1.01; with Motesanib (0.1 µM), 0.991; in the assay with Motesanib (0.3162 µM), 1.04; with Motesanib (1 µM), 1.07; in assay [1] (0.04 µM) it was 1. The relative viability was found to be 0.98 in assay [1] (0.1265 µM), 1.03 in assay [1] (0.4 µM) and 0.753 in assay [1] (1.265 µM).

Regarding HCC-827, the relative viability in the assay with Motesanib (0.01 µM) was determined as 1.09; with Motesanib (0.03162 µM), 1.08; in the assay with Motesanib (0.1 µM), 1.06; with Motesanib (0.3162 µM) it was 1.07; in the assay with Motesanib (1 µM), 1.09; in assay [1] (0.04 µM) it was 1.02. Moreover, the relative viability came out at 1.01 in assay [1] (0.1265 µM), 0.968 in assay [1] (0.4 µM) and 1.07 in assay [1] (1.265 µM).

Consider HOP-62, for which the relative viability in the assay with Motesanib (0.01 µM) turned out to be 1.06; with Motesanib (0.03162 µM) it was 1.04; with Motesanib (0.1 µM) it was 1.12; with Motesanib (0.3162 µM), 1.09; in the assay with Motesanib (1 µM), 1.11; in assay [1] (0.04 µM), 1.03. The relative viability in assay [1] (0.1265 µM) was 0.97; in assay [1] (0.4 µM) it was 0.914; in assay [1] (1.265 µM), 1.08.

Take IA-LM: the relative viability with Motesanib (0.01 µM) was determined as 0.927; in the assay with Motesanib (0.03162 µM) it was 1.03; with Motesanib (0.1 µM), 0.957; with Motesanib (0.3162 µM) it was 1.04; with Motesanib (1 µM), 0.941; in assay [1] (0.04 µM), 1.05. For the same cell line, the values for the relative viability in assay [1] (0.1265 µM), in assay [1] (0.4 µM) and in assay [1] (1.265 µM) were 1, 0.863 and 0.861, respectively.

For the cell line LC-2-ad, the relative viability with Motesanib (0.01 µM) was 0.992; with Motesanib (0.03162 µM), 0.974; in the assay with Motesanib (0.1 µM), 1.01; with Motesanib (0.3162 µM), 1.07; with Motesanib (1 µM), 0.981; in assay [1] (0.04 µM), 0.89. The relative viability in assay [1] (0.1265 µM) was determined as 0.845; in assay [1] (0.4 µM) it was 0.752; in assay [1] (1.265 µM) it was 0.625.

Regarding LCLC-97TM1, the relative viability came to 0.895 with Motesanib (0.01 µM); 0.961 in the assay with Motesanib (0.03162 µM); 0.95 with Motesanib (0.1 µM); 1.03 with Motesanib (0.3162 µM); 0.999 in the assay with Motesanib (1 µM); 0.824 in assay [1] (0.04 µM). The relative viability stood at 0.356 in assay [1] (0.1265 µM), 0.225 in assay [1] (0.4 µM) and 0.143 in assay [1] (1.265 µM).

In the case of LCLC-103H, the relative viability with Motesanib (0.01 µM) came out at 0.914; with Motesanib (0.03162 µM), 0.958; with Motesanib (0.1 µM) it was 0.974; with Motesanib (0.3162 µM), 1.02; with Motesanib (1 µM), 1.06; in assay [1] (0.04 µM) it was 0.896. The relative viability in assay [1] (0.1265 µM) was 0.922; in assay [1] (0.4 µM), 0.799; in assay [1] (1.265 µM) it was 0.885.

Regarding LK-2, the relative viability with Motesanib (0.01 µM) was determined as 1.05; in the assay with Motesanib (0.03162 µM), 0.945; with Motesanib (0.1 µM), 0.914; in the assay with Motesanib (0.3162 µM), 1.05; in the assay with Motesanib (1 µM) it was 1.02; in assay [1] (0.04 µM), 0.623. Besides, the relative viability in assay [1] (0.1265 µM) was 1.06; in assay [1] (0.4 µM) it was 0.508; in assay [1] (1.265 µM), 0.636.

For the cell line LOU-NH91, the relative viability with Motesanib (0.01 µM) stood at 0.94; with Motesanib (0.03162 µM), 0.982; in the assay with Motesanib (0.1 µM), 1.12; with Motesanib (0.3162 µM), 0.993; in the assay with Motesanib (1 µM), 0.995; in assay [1] (0.04 µM), 0.94. In addition, the relative viability turned out to be 0.94 in assay [1] (0.1265 µM), 0.894 in assay [1] (0.4 µM) and 0.841 in assay [1] (1.265 µM).
